From article PMC4999848 (Toxins, 2016)
Where “and” joins values, the source holds several entries; their conditions need not be identical. Equal values may be shown once.

Key:
pancreatic lipase = biological target: T1, pancreatic lipase (Sus scrofa, UniProt P00591); test: Deacetylation of 3/15ADON by pancreatic lipase; type: in vitro ADME, porcine; settings: lipase 0.75 mg/mL, PBS pH 7.4, 37 °C, substrate 100 μM
T1 construct: purchased Sigma-Aldrich
Description: Stock solutions of DON, 3ADON and 15ADON at 2 mg/mL were prepared in absolute ethanol and stored at −20 °C. For deacetylation assay, 3- or 15ADON were incubated with cells, explants, bacteria or digestive enzymes after being diluted in PBS^++ at a final concentration of 100 μM. PBS^++ solution containing only ethanol (at 1.5% final concentration) or DON (at 100 μM) were used in parallel as negative and positive control, respectively. For cells and explants, deacetylation assay take place in 6-well plates, wells being filled with 2 mL of PBS^++ containing either ethanol, DON, 3- or 15ADON. For fecal bacteria and digestive enzyme assay, deacetylation assay was conducted in 2 mL Eppendorf tubes filled with 1.5 mL of PBS^++ containing either ethanol, DON, 3- or 15ADON. In vitro intestinal digestion by luminal enzymes was performed using porcine enzymes from Sigma-Aldrich and physiological conditions. […] In all cases, aliquots of the reaction solution were collected immediately (i.e., “time zero” sample) or after the indicated time period at 37 °C and analyzed by HPLC. […]
Deacetylation was monitoring both in term of disappearance of 3- or 15ADON and formation of DON. […] Quantification was based on calibration with the corresponding standard using Millinium Software (Waters, Saint Quentin Falavier, France).

colonic explant = test: Deacetylation of 3/15ADON by human colonic explants; type: in vitro ADME; settings: for Disappearance of 3/15ADON, specific activity: colonic explant, 37 °C, substrate 100 μM; for % of deacetylation: colonic explants, 6 h incubation, 100 μM; for Contribution to total deacetylation activity: Colon: percentage of sum of specific activities (Figure 8)
Text: (§1) Human tissue samples were obtained from patients undergoing surgery at the Hospital Nord of Marseille, unit of general and gastrointestinal surgery according to a collaborative “clinical transfer” project. The procedures were approved by the French ethic committee (CODECOH n° DC-2011-1319). Patients were from both genders (six men, three women), 31–74 years of age, all of European origin. All patients agree to use their tissues for research purposes. Samples were taken from macroscopically unaffected area as identified by the surgeon for intestinal samples or the pathologist for liver resections. Diagnoses leading to surgery were carcinoma for intestine or liver. After resection, the specimens were placed in ice-cold non-sterile Krebs solution implemented and transferred to the school of medicine on the same campus within 5 min, composition of the Krebs solution being previously described. The tissues were rinsed several times and maintained in oxygenated Krebs during 1 h for recovery before final dissection. Intestinal and hepatic resections were extensively washed and maintained in ice-cold culture media containing 1% streptomycin/penicillin solution and 50 μg/mL gentamycin. Tissues were cleaned from vascular vessels and conjunctive tissue using forceps under binocular microscope. In case of intestinal resection, muscularis and plexus were removed and only epithelial layer was kept. Intestinal and hepatic explants (wet weight of 20–30 mg) were then isolated from the cleaned resections using surgical punch (diameter of […]). […] Finally, the explants were washed 3 times with PBS^++ and transferred into 6-well plates before being used for deacetylation assay.
(§2) Stock solutions of DON, 3ADON and 15ADON at 2 mg/mL were prepared in absolute ethanol and stored at −20 °C. For deacetylation assay, 3- or 15ADON were incubated with cells, explants, bacteria or digestive enzymes after being diluted in PBS^++ at a final concentration of 100 μM. PBS^++ solution containing only ethanol (at 1.5% final concentration) or DON (at 100 μM) were used in parallel as negative and positive control, respectively. For cells and explants, deacetylation assay take place in 6-well plates, wells being filled with 2 mL of PBS^++ containing either ethanol, DON, 3- or 15ADON. For fecal bacteria and digestive enzyme assay, deacetylation assay was conducted in 2 mL Eppendorf tubes filled with 1.5 mL of PBS^++ containing either ethanol, DON, 3- or 15ADON. In vitro intestinal digestion by luminal enzymes was performed using porcine enzymes from Sigma-Aldrich and physiological conditions. Briefly, 3- or 15ADON were incubated with pepsin (at 1.6 mg/mL corresponding to 900 U/mL), trypsin (at 0.35 mg/mL corresponding to 6000 U/mL), pancreatic lipase (at 0.75 mg/mL corresponding to 18 U/mL) or pancreatin (at 1.23 mg/mL, lipase activity >10 U/mL, protease activity >100 U/mL, amylase activity >100 U/mL). Except for pepsin for which the digestion was conducted in HCl solution at 10 mM (pH 2.3), in vitro digestion was performed in PBS^++ (pH 7.4). Finally, deacetylation assay was also performed with commercial pooled S9 fractions from human liver, small intestine and kidneys as well as with pure recombinant human CES1 and CES2. S9 fractions and CES1/2 were used at 0.1 mg/mL and 5 μg/mL (corresponding to CES activity >20 U/mL), respectively. In all cases, aliquots of the reaction solution were collected immediately (i.e., “time zero” sample) or after the indicated time period at 37 °C and analyzed by HPLC. […] In all cases, the experiments were conducted in triplicate (n = 3).

HepG2 cells = test: Deacetylation of 3/15ADON by HepG2 cells; type: in vitro ADME, human; settings: for Disappearance of 3/15ADON, specific activity: HepG2, 37 °C, substrate 100 μM; for % deacetylated: HepG2, 6 h incubation, 100 μM
Description: A498, Caco-2, T84 and HepG2 cells were used as models of human renal, small intestinal, colonic and hepatic cells, respectively. Cells were routinely grown in culture media (Dulbecco’s Modified Eagle Medium (DMEM), DMEM:F12 mixture and Minimum Essential Media (MEM) for A498/Caco-2, T84 and HepG2 cells, respectively) supplemented with 10% fetal calf serum and 1% antibiotics (streptomycin–penicillin solution). Cells were grown in 25 cm^2 ventilated flask maintained at 37 °C in a 5% CO2 incubator. Cells were routinely passed using trypsin-EDTA solution. For deacetylation experiments, cells were seeded onto 6-well plates at an initial density of 200,000 cells/cm^2. HepG2 and A498 were used 3–4 days post-seeding when confluence was reached. Caco-2 and T84 cells were let to differentiate for 10–14 days post-seeding before being used. In all cases, cells were washed three times with sterile phosphate buffer saline PBS^++ (PBS containing 100 mg/L of calcium and magnesium salts) before deacetylation assay.
Stock solutions of DON, 3ADON and 15ADON at 2 mg/mL were prepared in absolute ethanol and stored at −20 °C. For deacetylation assay, 3- or 15ADON were incubated with cells, explants, bacteria or digestive enzymes after being diluted in PBS^++ at a final concentration of 100 μM. PBS^++ solution containing only ethanol (at 1.5% final concentration) or DON (at 100 μM) were used in parallel as negative and positive control, respectively. For cells and explants, deacetylation assay take place in 6-well plates, wells being filled with 2 mL of PBS^++ containing either ethanol, DON, 3- or 15ADON. For fecal bacteria and digestive enzyme assay, deacetylation assay was conducted in 2 mL Eppendorf tubes filled with 1.5 mL of PBS^++ containing either ethanol, DON, 3- or 15ADON. In vitro intestinal digestion by luminal enzymes was performed using porcine enzymes from Sigma-Aldrich and physiological conditions. Briefly, 3- or 15ADON were incubated with pepsin (at 1.6 mg/mL corresponding to 900 U/mL), trypsin (at 0.35 mg/mL corresponding to 6000 U/mL), pancreatic lipase (at 0.75 mg/mL corresponding to 18 U/mL) or pancreatin (at 1.23 mg/mL, lipase activity >10 U/mL, protease activity >100 U/mL, amylase activity >100 U/mL). Except for pepsin for which the digestion was conducted in HCl solution at 10 mM (pH 2.3), in vitro digestion was performed in PBS^++ (pH 7.4). Finally, deacetylation assay was also performed with commercial pooled S9 fractions from human liver, small intestine and kidneys as well as with pure recombinant human CES1 and CES2. […] In all cases, aliquots of the reaction solution were collected immediately (i.e., “time zero” sample) or after the indicated time period at 37 °C and analyzed by HPLC. […]

liver explant = test: Deacetylation of 3/15ADON by human liver explants; type: in vitro ADME; settings: for % of deacetylation: hepatic explants, 6 h incubation, 100 μM; for Disappearance of 3/15ADON, specific activity: liver explant, 37 °C, substrate 100 μM; for Contribution to total deacetylation activity: Liver: percentage of sum of specific activities (Figure 8)
Text: as §1, §2

T1 sequence (P00591 whole entry): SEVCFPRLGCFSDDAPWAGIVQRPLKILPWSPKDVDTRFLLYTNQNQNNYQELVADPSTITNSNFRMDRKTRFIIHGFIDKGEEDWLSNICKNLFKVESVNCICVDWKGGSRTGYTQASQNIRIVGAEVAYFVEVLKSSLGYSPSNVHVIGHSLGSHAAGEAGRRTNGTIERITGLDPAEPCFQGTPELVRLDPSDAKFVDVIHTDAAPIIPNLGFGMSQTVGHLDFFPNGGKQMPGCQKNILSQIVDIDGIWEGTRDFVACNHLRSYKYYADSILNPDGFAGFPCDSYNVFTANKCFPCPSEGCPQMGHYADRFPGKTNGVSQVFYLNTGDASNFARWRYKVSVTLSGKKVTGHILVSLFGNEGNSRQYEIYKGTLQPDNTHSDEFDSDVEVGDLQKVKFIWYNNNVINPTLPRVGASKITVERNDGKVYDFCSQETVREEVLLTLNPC

## CC(=O)OC[C@]12[C@H](O)C(=O)C(C)=C[C@H]1O[C@@H]1[C@H](O)C[C@@]2(C)[C@]12CO2 [15ADON, 15-acetyldeoxynivalenol]
Pancreatic lipase
  Disappearance of 3/15ADON, specific activity: 42 ± 18 pmol/min/mg
Colonic explant
  Disappearance of 3/15ADON, specific activity: 4.5 pmol/min/mg and 4.5 ± 5.6 pmol/min/mg
  % of deacetylation: 0.2% ± 1.2%
  Contribution to total deacetylation activity: Colon: 0.7%
HepG2 cells
  Disappearance of 3/15ADON, specific activity: 295 pmol/min/mg and 295 ± 41 pmol/min/mg
  % deacetylated: 16.8% ± 2.4%
Liver explant
  % of deacetylation: 24.6% ± 2.8%
  Disappearance of 3/15ADON, specific activity: 330 pmol/min/mg and 330 ± 34 pmol/min/mg
  Contribution to total deacetylation activity: Liver: 52%

## CC(=O)O[C@@H]1C[C@]2(C)[C@@]3(CO)[C@H](O)C(=O)C(C)=C[C@H]3O[C@H]1[C@@]21CO1 [3ADON, 3-acetyldeoxynivalenol]
Pancreatic lipase
  Disappearance of 3/15ADON, specific activity: 48 ± 21 pmol/min/mg
Colonic explant
  Disappearance of 3/15ADON, specific activity: 22 ± 13 pmol/min/mg
  % of deacetylation: 4.2% ± 3.1%
  Contribution to total deacetylation activity: Colon: 1.7%
HepG2 cells
  Disappearance of 3/15ADON, specific activity: 902 pmol/min/mg and 902 ± 78 pmol/min/mg
  % deacetylated: 52.1% ± 4.5%
Liver explant
  % of deacetylation: 54.6% ± 15.4%
  Disappearance of 3/15ADON, specific activity: 714 pmol/min/mg and 714 ± 198 pmol/min/mg
  Contribution to total deacetylation activity: Liver: 56%
